We go through 1 compound from ChEMBL document CHEMBL3865818, “4,5-Diaryl-3H-1,2-dithiole-3-thiones and related compounds as combretastatin A-4/oltipraz hybrids: Synthesis, molecular modelling and evaluation as antiproliferative agents and inhibitors of tubulin” (Eur J Med Chem, 2016).

A short description of test [1]: Cell cycle arrest in human KB cells assessed as accumulation at S-phase measured after 24 hrs by propidium iodide staining-based flow cytometry (reference value: 16.96%). It counts as functional. (In general: In flow cytometry, cells or beads pass a laser one at a time.)
Test [2] in a line: Cell cycle arrest in human KB cells assessed as accumulation at S-phase at 0.2 uM measured after 60 hrs by propidium iodide staining-based flow cytometry (reference value: 12.66%). The test is classed as functional.
Test [3] can be described thus: Cell cycle arrest in human KB cells assessed as accumulation at G2/M-phase at 0.2 uM measured after 12 hrs by propidium iodide staining-based flow cytometry (reference value: 30.19%). It counts as functional.
Test [4] is described as follows: Cell cycle arrest in human KB cells assessed as accumulation at SubG1-phase at 0.1 uM measured after 60 hrs by propidium iodide staining-based flow cytometry (reference value: 1.24%). The test is classed as functional.
Test [5] in a line: Cell cycle arrest in human KB cells assessed as accumulation at S-phase at 0.1 uM measured after 60 hrs by propidium iodide staining-based flow cytometry (reference value: 12.66%). It counts as functional.
The nature of test [6]: Antiproliferative activity against human HT1080 cells measured after 72 hrs by MTT assay. It counts as functional, cell-based. The following applies: HT-1080, 72 h.
A short description of test [7]: Cell cycle arrest in human KB cells assessed as accumulation at G2/M-phase at 0.05 uM measured after 36 hrs by propidium iodide staining-based flow cytometry (reference value: 27.34%). It counts as functional.
Test [8] is described as follows: Inhibition of porcine brain tubulin polymerization measured after 60 mins by fluorescence analysis. The arrangement: species or system Sus scrofa.
Test [9] can be described thus: Cell cycle arrest in human KB cells assessed as accumulation at G0/G1-phase at 0.2 uM measured after 24 hrs by propidium iodide staining-based flow cytometry (reference value: 48.52%). The test is classed as functional.
Test [10] is described as follows: Cell cycle arrest in human KB cells assessed as accumulation at SubG1-phase at 0.1 uM measured after 12 hrs by propidium iodide staining-based flow cytometry (reference value: 1.23%). It counts as functional.
A short description of test [11]: Cell cycle arrest in human KB cells assessed as accumulation at SubG1-phase at 0.05 uM measured after 48 hrs by propidium iodide staining-based flow cytometry (reference value: 0.61%). The test is classed as functional.
Test [12] is described as follows: Cell cycle arrest in human KB cells assessed as accumulation at SubG1-phase at 0.1 uM measured after 48 hrs by propidium iodide staining-based flow cytometry (reference value: 0.61%). It counts as functional.
Test [13] in a line: Cell cycle arrest in human KB cells assessed as accumulation at S-phase at 0.05 uM measured after 36 hrs by propidium iodide staining-based flow cytometry (reference value: 16.51%). The test is classed as functional.
Test [14] is described as follows: Cell cycle arrest in human KB cells assessed as accumulation at G2/M-phase at 0.05 uM measured after 48 hrs by propidium iodide staining-based flow cytometry (reference value: 23.36%). It counts as functional.

Usually IC50 stands for the midpoint of a concentration-inhibition curve. High values mean lower potency, low ones higher potency.

Regarding `COc1ccc(-c2ssc(=O)c2-c2cc(OC)c(OC)c(OC)c2)cc1N`, the Activity was determined as 26.9% in test [1]; 6.33% in [2]; 70.2% in test [3]; 57.8% in test [4]; 9.61% in [5]; 23% in test [7]. Moreover, the Activity in test [9] turned out to be 6.24%; in test [10], 2.67%; in [11] it was 15.8%; in test [12] it was 33.6%; in test [13] it was 11.7%; in [14] it was 18.5%. Also, the IC50 was found to be 147 nM in test [6] and 4440 nM in test [8].
